The supplement of paper PMC10307832

How the values were obtained:
Assay in all cases: relative viability (nuclei count vs DMSO), 5 days (fraction); higher = more cells survive
NCI-H460 = system: NCI-H460
Summary of the method: (§1)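 A single step with final 0.05% Triton X-100, 1% formaldehyde and 1 ug/ml Hoechst fixed the cells and stained nuclei 5 days after treatment. Lung cancer cell lines in 1536-well plates had been treated by pin tool the day after seeding with one drug alone or a fixed anchor-drug dose plus five library-drug doses (not always all listed) in √10 steps, and nuclei were counted on 4× images. Relative viability is the ratio of nuclei in treated wells to nuclei in vehicle wells, taken as the median of duplicate plates.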

NCI-H596 = system: NCI-H596
Summary of the method: as §1

RERF-LC-KJ = system: RERF-LC-KJ
Summary of the method: as §1

NCI-H1792 = system: NCI-H1792
Summary of the method: as §1

NCI-H2347 = system: NCI-H2347
Summary of the method: as §1

NCI-H1651 = system: NCI-H1651
Summary of the method: as §1

NCI-H3122 = system: NCI-H3122
Summary of the method: as §1

NCI-H661 = system: NCI-H661
Summary of the method: as §1

NCI-H1755 = system: NCI-H1755
Summary of the method: as §1

SW 900 = system: SW 900
Summary of the method: as §1

NCI-H441 = system: NCI-H441
Summary of the method: as §1

## O=c1cc(N2CCOCC2)oc2c(-c3cccc4c3sc3ccccc34)cccc12 + CC(=O)Nc1cccc(-n2c(=O)n(C3CC3)c(=O)c3c(Nc4ccc(I)cc4F)n(C)c(=O)c(C)c32)c1 [Trametinib] (partner 0.02 µM)
NCI-H460; first compound 0.1 µM
  relative viability: 0.185
NCI-H460; first compound 0.3162 µM
  relative viability: 0.197
NCI-H460; first compound 1 µM
  relative viability: 0.12
NCI-H596; first compound 0.01 µM
  relative viability: 0.758
NCI-H596; first compound 0.03162 µM
  relative viability: 0.866
NCI-H596; first compound 0.1 µM
  relative viability: 0.831
NCI-H596; first compound 0.3162 µM
  relative viability: 0.711
NCI-H596; first compound 1 µM
  relative viability: 0.717
RERF-LC-KJ; first compound 0.01 µM
  relative viability: 0.824
RERF-LC-KJ; first compound 0.03162 µM
  relative viability: 0.874
RERF-LC-KJ; first compound 0.1 µM
  relative viability: 0.936
RERF-LC-KJ; first compound 0.3162 µM
  relative viability: 0.836
RERF-LC-KJ; first compound 1 µM
  relative viability: 0.798
NCI-H1792; first compound 0.01 µM
  relative viability: 0.322
NCI-H1792; first compound 0.03162 µM
  relative viability: 0.445
NCI-H1792; first compound 0.3162 µM
  relative viability: 0.383
NCI-H1792; first compound 1 µM
  relative viability: 0.458
NCI-H2347; first compound 0.01 µM
  relative viability: 0.263
NCI-H2347; first compound 0.03162 µM
  relative viability: 0.287
NCI-H2347; first compound 0.1 µM
  relative viability: 0.269
NCI-H2347; first compound 0.3162 µM
  relative viability: 0.309
NCI-H2347; first compound 1 µM
  relative viability: 0.229
NCI-H1651; first compound 0.01 µM
  relative viability: 0.816
NCI-H1651; first compound 0.03162 µM
  relative viability: 0.818
NCI-H1651; first compound 0.1 µM
  relative viability: 0.817
NCI-H1651; first compound 0.3162 µM
  relative viability: 0.819
NCI-H1651; first compound 1 µM
  relative viability: 0.871
NCI-H3122; first compound 0.01 µM
  relative viability: 0.217
NCI-H3122; first compound 0.03162 µM
  relative viability: 0.225
NCI-H3122; first compound 0.1 µM
  relative viability: 0.245
NCI-H3122; first compound 0.3162 µM
  relative viability: 0.216
NCI-H3122; first compound 1 µM
  relative viability: 0.202
NCI-H661; first compound 0.01 µM
  relative viability: 0.541
NCI-H661; first compound 0.03162 µM
  relative viability: 0.587
NCI-H661; first compound 0.1 µM
  relative viability: 0.674
NCI-H661; first compound 0.3162 µM
  relative viability: 0.581
NCI-H661; first compound 1 µM
  relative viability: 0.603
NCI-H1755; first compound 0.01 µM
  relative viability: 0.807
NCI-H1755; first compound 0.03162 µM
  relative viability: 0.83
NCI-H1755; first compound 0.1 µM
  relative viability: 0.81
NCI-H1755; first compound 0.3162 µM
  relative viability: 0.741
NCI-H1755; first compound 1 µM
  relative viability: 0.819
SW 900; first compound 0.03162 µM
  relative viability: 0.922
SW 900; first compound 0.1 µM
  relative viability: 0.949
SW 900; first compound 0.3162 µM
  relative viability: 0.858
SW 900; first compound 1 µM
  relative viability: 0.82
NCI-H441; first compound 0.01 µM
  relative viability: 0.513
NCI-H441; first compound 0.03162 µM
  relative viability: 0.431
NCI-H441; first compound 0.1 µM
  relative viability: 0.406
NCI-H441; first compound 0.3162 µM
  relative viability: 0.479
NCI-H441; first compound 1 µM
  relative viability: 0.42
